Data: ChEMBL document CHEMBL4813920, “Metronidazole-conjugates: A comprehensive review of recent developments towards synthesis and medicinal perspective” (Eur J Med Chem, 2021)
pEC50, pIC50: −log10 of the molar value. Converted amounts (≈) assume the structure as drawn.

How the values were obtained:
[1] = tested on: Trichomonas vaginalis; assay: Anti-trichomonas activity against Trichomonas vaginalis CDC 085 assessed as release of nitric oxide at 0.27 uM preincubated for 3 hrs followed by DAF-FM DA probe addition and measured after 30 mins by confocal microscopy; type: functional; conditions: time 3.5 hrs
[2] = tested on: Trichomonas vaginalis; assay: Anti-trichomonas activity against Trichomonas vaginalis CDC 085 incubated for 48 hrs by hemocytometer based eosin exclusion assay; type: functional, organism-based; conditions: CDC 085, 48 h
[3] = tested on: Trichomonas vaginalis; assay: Anti-trichomonas activity against Trichomonas vaginalis JT incubated for 48 hrs by hemocytometer based eosin exclusion assay; type: functional, organism-based
[4] = tested on: Trichomonas vaginalis; assay: Anti-trichomonas activity against Trichomonas vaginalis JT assessed as release of nitric oxide at 0.027 uM preincubated for 3 hrs followed by DAF-FM DA probe addition and measured after 30 mins by confocal microscopy; type: functional; conditions: time 3.5 hrs
[5] = tested on: A549; assay: Anticancer activity against human A549 cells assessed as inhibition of cell proliferation at 0.5 uM measured after 48 hrs by CCK8 assay relative to control; type: functional
[6] = tested on: NCI-H446; assay: Anticancer activity against human NCI-H446 cells assessed as inhibition of cell proliferation at 0.5 uM measured after 48 hrs by CCK8 assay relative to control; type: functional
[7] = Cytotoxicity against human MT4 cells assessed as reduction in cell viability after 5 days by MTT assay; type: cell-based; conditions: time 5 day
[8] = tested on: Human immunodeficiency virus 1; assay: Antiviral activity against HIV1 3B infected in human MT4 cells assessed as reduction in virus-induced cell death incubated for 5 days by MTT assay; type: functional, organism-based; conditions: Human immunodeficiency virus 1, 3B, MT4, 120 h
[9] = Selectivity index, ratio of CC50 for cytotoxicity against human MT4 cells to EC50 for antiviral activity against HIV1 3B infected in human MT4 cells; type: toxicity, cell-based; conditions: read-out: Ratio CC50/EC50
[10] = tested on: Helicobacter pylori; assay: Antimicrobial activity against Helicobacter pylori SS1 clinical isolate2 for 3 days by agar dilution method; type: functional; conditions: SS1 clinical isolate2, 72 h, time 3 day
[11] = tested on: Helicobacter pylori; assay: Antimicrobial activity against Helicobacter pylori clinical isolate3 for 3 days by agar dilution method; type: functional; conditions: clinical isolate3, 72 h, time 3 day
[12] = tested on: Helicobacter pylori; assay: Potency index, ratio of MIC for metronidazole to test compound for Helicobacter pylori clinical isolate3 for 3 days by agar dilution method; type: functional; conditions: time 3 day
[13] = tested on: Helicobacter pylori; assay: Antimicrobial activity against Helicobacter pylori clinical isolate8 for 3 days by agar dilution method; type: functional; conditions: clinical isolate8, 72 h, time 3 day
[14] = tested on: Helicobacter pylori; assay: Antimicrobial activity against Helicobacter pylori SS1 incubated for 3 days by agar dilution method; type: functional; conditions: SS1, 72 h, time 3 day
[15] = tested on: Helicobacter pylori; assay: Potency index, ratio of MIC for metronidazole to test compound for Helicobacter pylori clinical isolate8 for 3 days by agar dilution method; type: functional; conditions: time 3 day
[16] = tested on: Helicobacter pylori; assay: Antimicrobial activity against Helicobacter pylori ATCC 43504 incubated for 3 days by agar dilution method; type: functional; conditions: NCTC 11637 = CCUG 17874 = ATCC 43504, 72 h, time 3 day
[17] = tested on: Helicobacter pylori; assay: Potency index, ratio of MIC for metronidazole to test compound for Helicobacter pylori SS1 incubated for 3 days by agar dilution method; type: functional; conditions: time 3 day
[18] = tested on: Helicobacter pylori; assay: Potency index, ratio of MIC for metronidazole to test compound for Helicobacter pylori ATCC 43504 incubated for 3 days by agar dilution method; type: functional, NCTC 11637 = CCUG 17874 = ATCC 43504; conditions: time 3 day
[19] = tested on: Helicobacter pylori; assay: Potency index, ratio of MIC for metronidazole to test compound for Helicobacter pylori clinical isolate2 for 3 days by agar dilution method; type: functional; conditions: time 3 day
[20] = tested on: Proteus vulgaris; assay: Potency index, ratio of Norfloxacin MIC to test compound MIC for antibacterial activity against Proteus vulgaris by two-fold serial dilution technique; type: functional
[21] = tested on: Saccharomyces cerevisiae; assay: Antifungal activity against Beer yeast by two-fold serial dilution technique; type: functional
[22] = tested on: Staphylococcus aureus; assay: Antibacterial activity against Methicillin-resistant Staphylococcus aureus N315 by two-fold serial dilution technique; type: functional
[23] = tested on: Proteus vulgaris; assay: Potency index, ratio of Metronidazole MIC to test compound MIC for antibacterial activity against Proteus vulgaris by two-fold serial dilution technique; type: functional
[24] = tested on: Proteus vulgaris; assay: Antibacterial activity against Proteus vulgaris by two-fold serial dilution technique; type: functional
[25] = tested on: Cyberlindnera jadinii; assay: Antifungal activity against Candida utilis by two-fold serial dilution technique; type: functional; conditions: Williopsis jadinii
[26] = tested on: Proteus vulgaris; assay: Potency index, ratio of Chloromycin MIC to test compound MIC for antibacterial activity against Proteus vulgaris by two-fold serial dilution technique; type: functional
[27] = tested on: Escherichia coli; assay: Antibacterial activity against Escherichia coli DH52 by two-fold serial dilution technique; type: functional
[28] = tested on: Shigella dysenteriae; assay: Antibacterial activity against Shigella dysenteriae by two-fold serial dilution technique; type: functional
[29] = tested on: Giardia intestinalis; assay: Antigiardial activity against Giardia intestinalis WB incubated for 2 days under anaerobic condition; type: functional, organism-based; conditions: Giardia duodenalis, 48 h
[30] = tested on: Entamoeba histolytica; assay: Antiamoebic activity against Entamoeba histolytica HM-1:IMSS trophozoites incubated for 2 days under anaerobic condition; type: functional, organism-based; conditions: 48 h
[31] = tested on: Trichomonas vaginalis; assay: Anti-trichomonas activity against Trichomonas vaginalis G3 incubated for 24 hrs by hemocytometer counting method; type: functional, organism-based; conditions: G3, 24 h
[32] = tested on: Tritrichomonas foetus; assay: Anti-trichomonas activity against Trichomonas foetus D1 incubated for 24 hrs by hemocytometer counting method; type: functional, organism-based; conditions: D1, 24 h
[33] = tested on: Tritrichomonas foetus; assay: Anti-trichomonas activity against Trichomonas foetus C1 incubated for 24 hrs by hemocytometer counting method; type: functional, organism-based; conditions: C1, 24 h
[34] = tested on: Pseudomonas aeruginosa; assay: Antibacterial activity against Pseudomonas aeruginosa ATCC 27853 by microbroth dilution method; type: functional
[35] = tested on: Acinetobacter baumannii; assay: Potency index, ratio norfloxacin MIC to test compound MIC for antibacterial activity against Acinetobacter baumannii; type: functional
[36] = tested on: Enterococcus faecalis; assay: Antibacterial activity against Enterococcus faecalis by microbroth dilution method; type: functional
[37] = tested on: Pseudomonas aeruginosa; assay: Potency index, ratio norfloxacin MIC to test compound MIC for antibacterial activity against Pseudomonas aeruginosa ATCC 27853; type: functional
[38] = tested on: Candida parapsilosis; assay: Antimicrobial activity against Candida parapsilosis ATCC 22019; type: functional; conditions: Lodderomyces parapsilosis
[39] = tested on: Enterococcus faecalis; assay: Potency index, ratio norfloxacin MIC to test compound MIC for antibacterial activity against Enterococcus faecalis; type: functional
[40] = tested on: Acinetobacter baumannii; assay: Antibacterial activity against Acinetobacter baumannii by microbroth dilution method; type: functional
[41] = tested on: Escherichia coli; assay: Potency index, ratio norfloxacin MIC to test compound MIC for antibacterial activity against Escherichia coli; type: functional
[42] = tested on: Candida albicans; assay: Antimicrobial activity against Candida albicans ATCC 90023; type: functional
[43] = tested on: Escherichia coli; assay: Antibacterial activity against Escherichia coli by microbroth dilution method; type: functional
[44] = Selectivity index, ratio of CC50 for African green monkey Vero cells to IC50 for antigiardial activity against Trichomonas vaginalis GT3; type: toxicity; conditions: read-out: Ratio CC50/IC50
[45] = tested on: Entamoeba histolytica; assay: Antiamoebic activity against Entamoeba histolytica HK9 ATCC 30015 incubated for 72 hrs by trypan blue staining based assay; type: functional, organism-based; conditions: ATCC 30015, 72 h
[46] = tested on: Giardia intestinalis; assay: Antigiardial activity against Giardia intestinalis WB ATCC 30957 incubated for 72 hrs by trypan blue staining based assay; type: functional, organism-based; conditions: Giardia duodenalis, WB ATCC 30957, 72 h
[47] = tested on: Leishmania braziliensis; assay: Antileishmanial activity against promastigote form of Leishmania braziliensis MHOM/BR/75/M2903 measured for 7 days by cell counting method; type: functional; conditions: MHOM/BR/75/M2903, 168 h, time 7 day
[48] = tested on: Escherichia coli; assay: Antibacterial activity against Escherichia coli ATCC 8739 incubated for 24 hrs by broth microdilution method; type: functional
[49] = tested on: Clostridium perfringens; assay: Antibacterial activity against Clostridium perfringens ATCC 13124 incubated for 48 hrs under anaerobic condition by MTT assay; type: functional
[50] = tested on: Trichomonas vaginalis; assay: Anti-trichomonas activity against Trichomonas vaginalis JT assessed as release of superoxide radical at 0.229 uM preincubated for 3 hrs followed by Dihydroethidium probe addition and measured after 30 mins by confocal microscopy; type: functional; conditions: time 3.5 hrs
[51] = Selectivity index, ratio of CC50 for African green monkey Vero cells to IC50 for antigiardial activity against Giardia intestinalis MSS:0696:1; type: toxicity; conditions: read-out: Ratio CC50/IC50
[52] = tested on: Leishmania mexicana; assay: Antileishmanial activity against promastigote form of Leishmania mexicana MHOM/BZ/82/Bel21 measured for 7 days by cell counting method; type: functional; conditions: MHOM/BZ/82/Bel21, 168 h, time 7 day
[53] = tested on: Clostridium sporogenes; assay: Antimicrobial activity against Clostridium sporogenes ATCC 19404 incubated for 24 hrs by broth microdilution method; type: functional
[54] = tested on: Trichomonas vaginalis; assay: Anti-trichomonas activity against Trichomonas vaginalis GT3 incubated for 48 hrs; type: functional, organism-based; conditions: GT3, 48 h
[55] = tested on: Trichomonas vaginalis; assay: Anti-trichomonas activity against Trichomonas vaginalis JT assessed as release of H2O2 at 0.229 uM preincubated for 3 hrs followed by DCFH-DA probe addition and measured after 30 mins by confocal microscopy; type: functional; conditions: time 3.5 hrs
[56] = tested on: Staphylococcus aureus; assay: Antibacterial activity against Staphylococcus aureus ATCC 6538P incubated for 24 hrs by broth microdilution method; type: functional

Cc1ncc([N+](=O)[O-])n1CCCl
Activity [1]: 9000 a.u. | pIC50 [2]: 6.62 | pIC50 [3]: 8.22 | Activity [4]: 9000 a.u.

COc1cc2c(Nc3ccc(Br)cc3F)ncnc2cc1OCC1CCN(C(=O)Cn2cncc2[N+](=O)[O-])CC1
inhibition at 0.5 µM [5]: 62% | inhibition at 0.5 µM [6]: 59.9%

Cc1ncc([N+](=O)[O-])n1CCSc1ccccc1
CC50 at 120 h [7]: 24.8 µM | pEC50 [8]: 5.65 | selectivity ratio [9]: 11

Cc1ncc([N+](=O)[O-])n1CCOc1cc(O)c2c(=O)c(-c3ccc(O)cc3)coc2c1
MIC [10]: 0.39 µg/mL (≈ 0.921 µM) | MIC [11]: 0.39 µg/mL (≈ 0.921 µM) | Ratio [12]: >50 | MIC [13]: 0.39 µg/mL (≈ 0.921 µM) | MIC [14]: 0.39 µg/mL (≈ 0.921 µM) | Ratio [15]: >50 | MIC [16]: 0.39 µg/mL (≈ 0.921 µM) | Ratio [17]: >50 | Ratio [18]: >50 | Ratio [19]: >50

CCNc1ccc2c3c(cccc13)C(=O)N(CC(O)Cn1c([N+](=O)[O-])cnc1C)C2=O (stereo not drawn)
Ratio [20]: 10 | MIC [21]: 10 µM (≈ 4.23 µg/mL) | MIC [22]: 40 µM (≈ 16.9 µg/mL) | Ratio [23]: 95 | MIC [24]: 2 µM (≈ 0.847 µg/mL) | MIC [25]: 20 µM (≈ 8.47 µg/mL) | Ratio [26]: 50 | MIC [27]: 40 µM (≈ 16.9 µg/mL) | MIC [28]: 10 µM (≈ 4.23 µg/mL)

Cc1ncc([N+](=O)[O-])n1CCn1cc(CN2C(=O)C(=C3OCCO3)c3cc(Br)ccc32)nn1
pIC50 [29]: 6.10 | pIC50 [30]: 5.82

Cc1ncc([N+](=O)[O-])n1CCn1cc(CN2C(=O)/C(=N\NC(N)=S)c3ccccc32)nn1
pIC50 [31]: 5.59 | pIC50 [32]: 6.22 | pIC50 [33]: 6.22

Cc1ncc([N+](=O)[O-])n1CC(O)CN1CCN(S(=O)(=O)c2ccc(N)cc2)CC1 (stereo not drawn)
MIC [34]: 38 µM (≈ 16.1 µg/mL) | Ratio [35]: 11 | MIC [36]: 75 µM (≈ 31.8 µg/mL) | Ratio [37]: 11 | MIC [38]: 75 µM (≈ 31.8 µg/mL) | Ratio [39]: 11 | MIC [40]: 75 µM (≈ 31.8 µg/mL) | Ratio [41]: 84 | MIC [42]: 75 µM (≈ 31.8 µg/mL) | MIC [43]: 19 µM (≈ 8.07 µg/mL)

Cc1ncc([N+](=O)[O-])n1CCO [METRONIDAZOLE]
selectivity ratio [44]: > 107 | pIC50 [45]: 5.28 | pIC50 [46]: 5.24 | LC50 [47]: > 1000 µM | MIC [48]: 5480 µM (≈ 938 µg/mL) | pIC50 [2]: 6.31 | MIC [49]: 0.0058 µM (≈ 0.000993 µg/mL) | pIC50 [3]: 7.17 | Activity [50]: 350000 a.u. | selectivity ratio [51]: > 22 | LC50 [52]: > 1000 µM | MIC [53]: 42.9 µM (≈ 7.34 µg/mL) | pIC50 [54]: 6.03 | Activity [55]: 1800000 a.u. | MIC [56]: 2050 µM (≈ 351 µg/mL)
